One experiment addresses T1, FXR receptor (Homo sapiens, UniProt Q96RI1).
T1 construct: expressed in transfected cells; host or cells: 293T cells
T1 sequence (Q96RI1 1-486): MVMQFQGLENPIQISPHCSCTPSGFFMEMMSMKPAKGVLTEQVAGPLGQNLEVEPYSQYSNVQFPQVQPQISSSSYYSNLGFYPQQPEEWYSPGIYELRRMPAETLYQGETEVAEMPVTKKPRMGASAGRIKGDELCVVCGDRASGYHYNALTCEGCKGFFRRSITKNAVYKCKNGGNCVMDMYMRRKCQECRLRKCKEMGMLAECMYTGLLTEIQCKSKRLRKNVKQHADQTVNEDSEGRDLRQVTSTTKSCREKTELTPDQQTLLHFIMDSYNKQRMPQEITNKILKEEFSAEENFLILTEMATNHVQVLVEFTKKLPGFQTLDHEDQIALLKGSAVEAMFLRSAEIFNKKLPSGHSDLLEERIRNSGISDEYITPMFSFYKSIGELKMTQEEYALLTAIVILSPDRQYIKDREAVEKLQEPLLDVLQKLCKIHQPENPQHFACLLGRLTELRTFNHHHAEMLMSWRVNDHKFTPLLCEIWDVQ
The experiment in a line: FXR activity at the cell level (FXRE luciferase reporter in 293T cells). Format: cell-based. To be noted: 293T cells; for Activity relative to OCA (%) 10 μM: luciferase reporter; for EC50: FXRE luciferase reporter, read-out: EC50 (cell level). As to the method:
The cells were cultured for 24 hours to ensure plasmid expression. Then the FXR receptor agonist to be tested was added and acted for 18 hours. The fluorescence intensity was detected using luciferase kit (steady-Glo Luciferase Assay system) to reflect the compound's activation efficiency on the FXR receptor. […] The appropriate concentration interval was selected, and the dose-dependent relationship, that is, the EC50 value, was calculated.
(Reporter assays use an easily measured gene product as a stand-in for the process of interest.)

The target of experiment [1] is T2, recombinant GST-FXR fusion protein (Homo sapiens, UniProt Q96RI1).
T2 sequence (Q96RI1 1-486): T1 sequence (Q96RI1 1-486)
The experiment in a line: FXR activity at the molecular level (AlphaScreen). In kind it is biochemical. As to the method:
Test Method for FXR Activity at the Molecular Level
FXR activity was determined using recombinant GST-FXR fusion protein by Perkin Elmer's AlphaScreen detection reagent. The reaction in this method was carried out in a 384-well plate, and the total reaction volume was 15 μL. The mixture of protein, agonist, co-regulatory factor, AlphaScreen® acceptor beads and AlphaScreen® donor beads was reacted in a buffer containing Tris-HCl 50 mM (pH7.4), 50 mM NaCl, BSA 0.1%, and 1 mM DTT. The FXR activity was reflected by the fluorescence signal intensity at 570 nm wavelength detected by the Envision fluorescence detector. The value of EC50 was calculated by the software Graphpad Prism 5.
On the technique in general: In Alpha technology, singlet oxygen from a donor bead excites a nearby acceptor bead.

Experiment [2] has as its system TAA-induced hepatic fibrosis model rats. As to the kind of experiment: TAA-induced hepatic fibrosis model rats. Format: in vivo, rat. As to the method: 1) Pharmacodynamic Evaluation of Compound 1 (LXF-32) on TAA-Induced Hepatic Fibrosis Model Rats
In this experiment, TAA induced hepatic fibrosis model rats were used to investigate the effect of long-term oral administration of compound 1 on hepatic fibrosis in the model rats.
Experimental method: Male SD rats were intraperitoneally injected with thioacetamide (TAA, dissolved in normal saline) at a dose of 150 mg/kg three times a week to induce a liver fibrosis model. Four weeks after the model was made, the blood was taken from the retro-ocular venous plexus of the rats to detect serum ALP indicators. […] During the administration period, the animal's food intake and body weight were monitored. After 2 weeks of administration, the blood was taken from the retro-ocular venous plexus of the rats to detect serum ALP indicators. After 4 weeks of administration, the blood was taken from the retro-ocular venous plexus and the rats were dislocated and sacrificed. The livers were taken out and weighed. Part of the liver was fixed with 4% paraformaldehyde, and part of the liver was frozen at −80° C. During the whole experiment, another 8 rats in the same cage were injected intraperitoneally with the same volume of normal saline as the system normal control group (WT). This experiment detected indicators such as the level of liver function index ALP in serum, the expression of α-SMA and Col1α1 (fibrosis-related genes) gene level in the liver, the content of hydroxyproline (a characteristic amino acid of collagen) in the liver, and the pathological changes of the liver (Sirius scarlet stain), etc., thereby reflecting whether the compound has the effect of relieving liver fibrosis.

Experiment [3] concerns CCL4-induced hepatic fibrosis model mice. The experiment in a line: CCL4-induced hepatic fibrosis model mice. Format: in vivo, mouse. As to the method: In this experiment, CCL4 induced hepatic fibrosis model mice were used to investigate the effect of long-term oral administration of compound 8 on hepatic fibrosis in the model mice.
Experimental method: Male C57BL/6j mice were injected intraperitoneally with 2 mL/kg, 10% CCl4 (dissolved in olive oil) three times a week to induce liver fibrosis model. Two weeks after the model was made, the blood was taken from the retro-ocular venous plexus of the mice to detect serum ALT, AST, TBA and LDH indicators. According to ALT, AST, TBA, LDH, body weight and other indicators, the mice were randomly divided into 5 groups. […] During the administration period, the animals' food intake and body weight were monitored. After 3 weeks of administration, the blood was taken from the retro-ocular venous plexus of the mice to detect serum ALT, AST, TBA and LDH indicators. After 6 weeks of administration, the blood was taken from the retro-ocular venous plexus and the mice were dislocated and sacrificed. The livers were taken out and weighed. Part of the liver was fixed with 4% paraformaldehyde, and part of the liver was frozen at −80° C. During the whole experiment, another 10 mice in the same cage were intraperitoneally injected with the same volume of olive oil as the system normal control group (WT).
This experiment detected indicators such as the levels of liver function indicators ALT, AST, TBA, LDH in serum, the expression of α-SMA and Col1α1 gene levels in the liver, and the pathological changes of the liver (Sirius scarlet stain), etc., thereby reflecting whether the compound has the effect of relieving liver fibrosis.

Setting [4] is: 20 mg/kg oral once a day, 4 weeks.
[5] abbreviates: high-dose 20 mg/kg oral once a day, 6 weeks.
The mark [6] stands for this setting: low-dose 6 mg/kg oral once a day, 6 weeks.

The values that follow come from patent publication US12240841B2, “FXR small molecule agonist and preparation method therefor and use thereof” (Shanghai Institute of Materia Medica, Chinese Academy of …, priority 2019, dated 2025).

A word on the EC50: it is the concentration at which the effect is half-maximal.

With `O=c1[nH]c(-c2cccc(N3CCC(OCc4c(-c5c(Cl)cccc5Cl)noc4C4CC4)CC3)c2)no1` [Example 1], at FXR receptor, the “Activity relative to OCA (%) 10 μM” value is recorded as 109% and the 50% effective concentration (EC50) came to 110 nM. The EC50 in experiment [1] is 446 nM. Besides, in experiment [2] (setting [4]), the “collagen content in the liver (Sirius scarlet stained sections)” value (from here on “collagen content in the liver”) was “reduced the collagen content in the liver, because there were large differences within the model group, and there was no statistical difference”; the “content of hydroxyproline in liver tissue” value was “reduced”; the “expression of Col1α1 mRNA in liver tissue” value is reported as “significantly down-regulated”; the “expression of α-SMA mRNA in liver tissue” value is “significantly down-regulated”. Besides, in experiment [2] (20 mg/kg oral once a day, 4 weeks, vs model control), the “level of ALP in serum” value was “significantly reduced”. Further, in experiment [2] (long-term administration), the “effect on liver fibrosis (summary)” value is recorded as “a certain alleviating effect”.
For `O=c1[nH]c(-c2ccc(N3CCC(OCc4c(-c5ccccc5C(F)(F)F)noc4C4CC4)CC3)cc2)no1` [Example 8], at FXR receptor, the “Activity relative to OCA (%) 10 μM” value amounted to 88% and the EC50 was 5 nM. The EC50 in experiment [1] was determined as 104 nM. For the same compound, the “collagen content in the liver” value in experiment [3] (high-dose 20 mg/kg) is reported as “significantly reduced”. Also, in experiment [3] (setting [5]), the “effect on LDH in serum” value is listed as “little effect”, the “level of ALT in serum” value is on record as “significantly reduced”, the “level of AST in serum” value is given as “significantly reduced” and the “level of TBA in serum” value is recorded as “significantly reduced”. Also, in experiment [3] (high-dose 20 mg/kg, 6 weeks), the “expression of col1α1 in the liver” value is reported as “down-regulated” and the “expression of α-SMA in the liver” value is “significantly down-regulated”. Further, the “effect on liver fibrosis (summary)” value in experiment [3] (long-term administration) is on record as “a certain alleviating effect”. Also, in experiment [3] (low-dose 6 mg/kg), the “collagen content in the liver” value is listed as “significantly reduced” and the “effect on liver collagen content compared with the low-dose OCA group” value is “slightly better”. For the same compound, in experiment [3] (setting [6]), the “effect on LDH in serum” value is “little effect”, the “level of ALT in serum” value was “significantly reduced”, the “level of AST in serum” value is reported as “significantly reduced” and the “level of TBA in serum” value is reported as “significantly reduced”. Besides, the “effect on serum liver function indicators compared with the low-dose OCA group” value in experiment [3] (low-dose 6 mg/kg, 6 weeks) was “slightly better”.
`O=c1[nH]c(-c2ccc(N3C4CCC3CC(OCc3c(-c5ccccc5C(F)(F)F)noc3C3CC3)C4)cc2F)no1` (stereo not shown) [Example 37]: at FXR receptor, the “Activity relative to OCA (%) 10 μM” value amounted to 102% and the EC50 amounted to 0.284 nM. Besides, in experiment [1], the EC50 is 50.6 nM.
For `O=c1[nH]c(-c2ccc(N3C4CCC3CC(OCc3c(-c5ccccc5OC(F)(F)F)noc3C3CC3)C4)cc2F)no1` (stereo not shown) [Example 38], on FXR receptor, the “Activity relative to OCA (%) 10 μM” value amounted to 102% and the EC50 is 0.304 nM. Moreover, the EC50 in experiment [1] came to 51.3 nM.
Turning to `O=c1[nH]c(-c2ccc(N3C4CCC3CC(OCc3c(-c5ccccc5OC(F)F)noc3C3CC3)C4)nc2)no1` (stereo not shown) [Example 39], on FXR receptor, the “Activity relative to OCA (%) 10 μM” value came out at 108% and the EC50 was found to be 1.49 nM. The EC50 in experiment [1] amounted to 25 nM.
As for `Cc1ccccc1-c1noc(C2CC2)c1COC1CC2CCC(C1)N2c1ccc(-c2noc(=O)[nH]2)cn1` (stereo not shown) [Example 40], on FXR receptor, the “Activity relative to OCA (%) 10 μM” value turned out to be 105% and the EC50 was determined as 2.11 nM. Further, the EC50 in experiment [1] was found to be 94.4 nM.
For `O=c1[nH]c(-c2ccc(N3C4CCC3CC(OCc3c(-c5ccccc5OC(F)F)noc3C3CC3)C4)cc2F)no1` (stereo not shown) [Example 41] the same measures were 108%, 0.718 nM and 28.5 nM.
Take `Cc1ccccc1-c1noc(C2CC2)c1COC1CC2CCC(C1)N2c1ccc(-c2noc(=O)[nH]2)c(F)c1` (stereo not shown) [Example 42]: on FXR receptor, the “Activity relative to OCA (%) 10 μM” value worked out at 106% and the EC50 amounted to 0.96 nM. Further, the EC50 in experiment [1] worked out at 80.4 nM.
Take `CC[C@H]1[C@@H](O)[C@@H]2[C@H](CC[C@]3(C)[C@@H]([C@H](C)CCC(=O)O)CC[C@@H]23)[C@@]2(C)CC[C@@H](O)C[C@@H]12` [OCA, reference compound]: in experiment [3] (setting [5]), the “level of ALT in serum” value is given as “significantly reduced”, the “level of AST in serum” value is “significantly reduced” and the “level of TBA in serum” value was “significantly reduced”. Also, the “level of TBA in serum” value in experiment [3] (setting [6]) is recorded as “lowering effect”.
